Data reported in patent US10611742B2, “4-oxo-4,5-dihydrothiazole derivative, preparation method and use thereof” (Institute of Pharmacology and Toxicology Academy of …, priority 2015, dated 2020).

Tests used:
Assay type in all cases: cell-based
[1] = test system: enterovirus EV71 (SZ-98 strain); experiment: anti-EV71 activity, preventive effect on Vero cell (CPE inhibition)
Experimental: (§1) Test principle: Vero cell, MRC-5 cell, and RD cell were used as host of virus, respectively, and samples were tested for their inhibition of cytopathic effect (CPE) caused by virus.
(§2) 1. Virus strain: enterovirus EV71 (SZ-98 strain, provided by Chinese Center for Disease Control and Prevention), Vero cell (provided by the Cell Bank of Chinese Academy of Sciences), MRC-5 cell (provided by the Cell Bank of Chinese Academy of Sciences), and RD cell (provided by the Cell Bank of Chinese Academy of Sciences), were subjected to passage culture, respectively, and stored at −80° C.
(§3) 2. Sample treatment: a test sample (Compounds 1-14 and positive control agent) was dissolved in dimethyl sulfoxide (DMSO) to prepare a stock solution, which was stored at −20° C. The stock solution was diluted with DMEM medium (Gibco Company) containing 2% fetal bovine serum (Gibco Company) to prepare a 100 μM solution before use, and was 3-fold diluted with the medium to obtain 8 diluted concentrates.
(§4) 3. Positive control agent: Con1 (pitstop2) (purchased from AmyJet Scientific Inc., Abcam), a broad-spectrum antiviral inhibitor.
(§5) 4. Test method: • 4.1 Therapeutic effect: the cells were seeded on a 96-well culture plate, and cultured in a 5% CO2, 37° C. incubator for 24 h. About 100 TCID50 enterovirus EV71 was added to each well. After adsorption at 37° C. for 1 h, the virus solution was discarded, and a drug was added at different diluted concentrates, respectively. Meanwhile, virus control and cell control were set, and cultured at 37° C. […] The virus-inhibition rate of a sample at each concentration was calculated based on the chemiluminescent value, the sample concentration was used as abscissa, and the inhibition rate was used as ordinate, and S-Curve fitting was performed by using Origin software. Half maximal inhibitory concentration (IC50) of each sample for enterovirus EV71 was calculated based on the fitting results. Median toxic concentration (TC50) was determined by the same method. […] To each well, a drug was added at a different diluted concentration, then the cells were cultured at 37° C. for 2 h, and then the drug was discarded. About 100 TCID50 enterovirus EV71 was added to each well, adsorbed at 37° C. for 1.5 h, then the virus solution was discarded, and a maintenance medium free of drug was added. Meanwhile, virus control and cell control were set, and cultured at 37° C. […] The virus-inhibition rate of a sample at each concentration was calculated, and half maximal inhibitory concentration (IC50), median toxic concentration (TC50), and selection index (SI) of each sample for enterovirus EV71 were calculated. The methods for determining and calculating them were as described in Item 4.1

[2] = test system: enterovirus EV71 (SZ-98 strain); experiment: anti-EV71 activity, preventive effect on RD cell (CPE inhibition)
Experimental: as §1, §2, §3, §4, §5

[3] = median toxic concentration on MRC-5 cell; settings: human, MRC-5 cells, Table 1-2 (therapeutic effect), read-out: TC50 (the source's name)
Experimental: as §2, §3, §5

[4] = test system: enterovirus EV71 (SZ-98 strain); experiment: anti-EV71 activity, therapeutic effect on Vero cell (CPE inhibition, Celltiter Glo)
Experimental: as §1, §2, §3, §4, §5

[5] = median toxic concentration on RD cell; settings: human, RD cells; for CC50 at 2 h: Table 2-2 (preventive effect), read-out: TC50; for CC50: read-out: TC50 (the source's name)
Experimental: as §2, §3, §5

Vero cell = experiment: median toxic concentration on Vero cell
Experimental: as §2, §3, §5

[6] = median toxic concentration on Vero cell; settings: African green monkey, Vero cells; for CC50: Table 1-1 (therapeutic effect), read-out: TC50 (the source's name); for CC50 at 2 h: Table 2-1 (preventive effect), read-out: TC50
Experimental: as §2, §3, §5

[7] = test system: clathrin-mediated endocytosis of transferrin; experiment: inhibition of clathrin-mediated endocytosis of transferrin in HeLa cells (fluorescence microscope); settings: for inhibitory effect on endocytosis of transferrin (in words): 1.25 to 40 μmol/L; for inhibition at 20 µM: Homo sapiens, 20 μM compound, read-out: Inhibition rate
Experimental: 1. Experiment principle: transferrin was a key protein for clathrin-mediated endocytosis. Therefore, by determining the effect of a compound on transferrin in HeLa cell, the inhibitory effect of the compound on clathrin-mediated endocytosis could be evaluated. 2. Sample treatment: a test compound was dissolved in DMSO to prepare a stock solution, which was stored at −20° C. The stock solution was diluted with HEPES buffer (25 mm HEPES, 20 mm Glucose, 1% BSA, sterile water) to prepare a solution with an initial concentration of […] before use, and was 2-fold diluted with the buffer to obtain 6 diluted concentrations from 1.25 to 40 μmol/L. 4. Test method: HeLa cells (provided by the Cell Bank of Chinese Academy of Sciences) were seeded on a 24-well culture plate coated with 0.1 mg/ml polylysine, a serum-free medium DMEM (Gibco Company) was added at 500 μl/well, and the cells were cultured for one night. To each well, 0.5 μl a test compound at a different diluted concentration or 0.1 v/v % DMSO was added, then the pretreatment was performed for 15 min, and then 20 μg/ml alexa^568 transferrin (2 μl) (TF, SIGMA-ALDRICH Company) was added, and the incubation was carried out at 37° C. for 15 min. The resultant mixture was then washed with Live Cell Imaging Solution (LCIS, Invitrogen Company) and an acid at a low pH ([…] NaCl solution containing 0.5% acetic acid) for 30 s, respectively, followed by fixing with cold methanol, and was observed under fluorescence microscope.

[8] = test system: enterovirus EV71 (SZ-98 strain); experiment: anti-EV71 activity, therapeutic effect on MRC-5 cell (CPE inhibition, Celltiter Glo); settings: MRC5
Experimental: as §1, §2, §3, §4, §5

[9] = test system: enterovirus EV71 (SZ-98 strain); experiment: anti-EV71 activity, therapeutic effect on RD cell (CPE inhibition, Celltiter Glo)
Experimental: as §1, §2, §3, §4, §5

[10] = EV71 (SZ-98 strain), therapeutic effect on Vero cell, read-out: IC50

| Compound | IC50 [1] [µM] | IC50 [2] [µM] | CC50 [3] [µM] | IC50 [4, 10] [µM] | IC50 ([4]; Enterovirus, EV71, Vero cell, read-out: activity (IC50)) [µM] | CC50 at 2 h [5] [µM] | CC50 [5] [µM] | toxicity compared with the positive control agent (in words) (Vero cell) | CC50 [6] [µM] | CC50 at 2 h [6] [µM] | endocytosis of transferrin at 20 μM (in words) ([7]; 20 μM) | inhibitory effect on endocytosis of transferrin (in words) [7] | inhibition at 20 µM [7] [%] | IC50 [8] [µM] | anti-EV71 activity (in words) [9] | IC50 ([9]; EV71 (SZ-98 strain)) [µM] | IC50 ([9]; Enterovirus, EV71) [µM] | CC50 ([5]; Table 1-3 (therapeutic effect)) [µM] | TC50 (Vero cell; Table 1-1 (therapeutic effect)) [µM] |
| --- | --- | --- | --- | --- | --- | --- | --- | --- | --- | --- | --- | --- | --- | --- | --- | --- | --- | --- | --- |
| CCN(CC)c1ccc(/C=C2\SC(NS(=O)(=O)c3cccc4ccccc34)=NC2=O)c(O)c1 [Compound 3, Naphthalene-1-sulfonic acid [5-(2-hydroxy-4-diethylamino-benzylidene)-4-oxo-4,5-dihydro-thiazol-2-yl] amide] | > 7.41 | > 7.41 | 12.8 | 5.14 | 5.14 | 12.8 | 12.8 | a lower toxicity than the positive control agent | 12.8 | 12.8 | completely inhibited | dose-dependent | 100 | > 7.41 | better anti-EV71 activity | 7.41 | 7.41 | – | – |
| O=C1N=C(NS(=O)(=O)c2cccc3ccccc23)S/C1=C\c1ccc(C(=O)O)cc1 [Compound 5, Naphthalene-1-sulfonic acid [5-(4-carboxy-benzylidene)-4-oxo-4,5-dihydro-thiazol-2-yl] amide] | ≥ 22.2 | 200 | > 200 | > 200 | – | > 200 | – | – | – | 200 | – | – | – | > 200 | better anti-EV71 activity | 22.2 | – | > 200 | 200 |
| O=C1N=C(NS(=O)(=O)c2cccc3ccccc23)S/C1=C\c1ccc(Br)cc1 [Con 1, Naphthalene-1-sulfonic acid [5-(4-bromo-benzylidene)-4-oxo-4,5-dihydro-thiazol-2-yl] amide, reference compound] | > 2.47 | 5.14 | 10.7 | > 2.47 | – | 12.8 | 12.8 | – | 4.28 | 4.28 | – | dose-dependent | 50 | > 2.47 | – | 5.41 | 5.14 | – | – |
